Here are results for 5 compounds from patent US12559463B2, “Crystalline forms of a JAK2 inhibitor” (Impact Biomedicines, Inc., priority 2019, dated 2026).

For data set [1] the following is noted: additive used in the salt screen, cited from earlier work.
The nature of data set [2]: pKa of basic sites / additives. The format is physicochemical. As to conditions: two basic sites for salt formation. An excerpt:
Fifty-three counterions and stoichiometric combinations were selected. Table 1 provides a summary of the additives, pKa values, method of dosing and equivalents dosed for each additive.

Structures are written as SMILES. Like-named read-outs stand apart in the source and are kept apart here.

Usually pKa stands for the negative logarithm of the acid dissociation constant. As for `O=C(O)C(O)c1ccccc1` (racemic) [DL-Mandelic acid], the pKa in data set [1] (first pKa value) is on record as 3.4.
Regarding `CC1(C)C2CCC1(CS(=O)(=O)O)C(=O)C2` (stereo not shown) [Camphor-10-sulfonic acid], the pKa in data set [1] (first pKa value) was −2.2.
`CC1(C(=O)O)CCC(C(=O)O)C1(C)C` (stereo not shown) [Camphoric acid]: the pKa in data set [1] (first pKa value) is given as 4.7; in data set [1] (second pKa value), 5.8.
With `Cc1cnc(Nc2ccc(OCCN3CCCC3)cc2)nc1Nc1cccc(S(=O)(=O)NC(C)(C)C)c1` [Compound 1, N-tert-butyl-3-[(5-methyl-2-{[4-(2-pyrrolidin-1-ylethoxy)phenyl]amino}pyrimidin-4-yl)amino]benzenesulfonamide], the figures for the pKa in data set [2] and in data set [2] (read-out: pKa) were 6.4 and 9.3, respectively.
For the compound `O=C(O)[C@@H](O)c1ccccc1` [L-Mandelic acid], in data set [1] (first pKa value), the pKa is listed as 3.4.
